According to patent publication US9067881B2, “4-tolyl-ethynyl-octahydro-indole-1-ester derivatives” (NOVARTIS AG, priority 2011, dated 2015):
≈ marks a conversion by molar mass, not a printed value.

Legend:
[1] = In-vitro clearance in rat liver microsomes (metabolic stability, compound depletion)
[2] = Solubility in Cl free phosphate buffer pH 6.8; type: physicochemical; conditions: aqueous buffer; Cl free phosphate buffer (0.067 M) pH 6.8

Compound | microsomal CLint at 1 μM [1] | solubility [2]
CC[C@H](C)[C@H](N)C(=O)O[C@@]1(C#Cc2cccc(C)c2)CCC[C@@H]2[C@H]1CCN2C(=O)OC [Example 33, (3aR,4S,7aR)-4-((2S,3S)-2-Amino-3-methyl-pentanoyloxy)-4-m-tolylethynyl-octahydro-indole-1-carboxylic acid methyl ester] | 660 µL/min/mg | –
COC(=O)N1CC[C@@H]2[C@H]1CCC[C@]2(C#Cc1cccc(C)c1)OC(=O)[C@@H](N)CCSC [Example 6, (3aR,4S,7aR)-4-((S)-2-Amino-4-methylsulfanyl-butyryloxy)-4-m-tolylethynyl-octahydro-indole-1-carboxylic acid methyl ester] | 51 µL/min/mg | –
COC(=O)N1CC[C@@H]2[C@H]1CCC[C@]2(C#Cc1cccc(C)c1)OC(=O)[C@@H](N)Cc1ccccc1 [Example 31, (3aR,4S,7aR)-4-((S)-2-Amino-3-phenyl-propionyloxy)-4-m-tolylethynyl-octahydro-indole-1-carboxylic acid methyl ester] | 262 µL/min/mg | –
CCCCC(=O)O[C@@]1(C#Cc2cccc(C)c2)CCC[C@@H]2[C@H]1CCN2C(=O)OC [Example 22, (3aR,4S,7aR)-4-Pentanoyloxy-4-m-tolylethynyl-octahydro-indole-1-carboxylic acid methyl ester] | – | < 2 µg/mL
CCCC(=O)O[C@@]1(C#Cc2cccc(C)c2)CCC[C@@H]2[C@H]1CCN2C(=O)OC [Example 15, (3aR,4S,7aR)-4-Butyryloxy-4-m-tolylethynyl-octahydro-indole-1-carboxylic acid methyl ester] | – | 2 µg/mL (≈ 5.22 µM)
CN[C@@H](C)C(=O)O[C@@]1(C#Cc2cccc(C)c2)CCC[C@@H]2[C@H]1CCN2C(=O)OC [Example 35, (3aR,4S,7aR)-4-((S)-2-Methylamino-propionyloxy)-4-m-tolylethynyl-octahydro-indole-1-carboxylic acid methyl ester] | 50 µL/min/mg | –
COCC(=O)O[C@@]1(C#Cc2cccc(C)c2)CCC[C@@H]2[C@H]1CCN2C(=O)OC [Example 10, (3aR,4S,7aR)-4-(2-Methoxy-acetoxy)-4-m-tolylethynyl-octahydro-indole-1-carboxylic acid methyl ester] | – | 47 µg/mL (≈ 122 µM)
COC(=O)N1CC[C@@H]2[C@H]1CCC[C@]2(C#Cc1cccc(C)c1)OC(=O)CCCC(N)=O [Example 55, (3aR,4S,7aR)-methyl 4-(5-amino-5-oxopentanoyloxy)-4-(m-tolylethynyl)octahydro-1H-indole-1-carboxylate] | – | 93 µg/mL (≈ 218 µM)
COC(=O)N1CC[C@@H]2[C@H]1CCC[C@]2(C#Cc1cccc(C)c1)OC(=O)Cc1ccccc1 [Example 43, (3aR,4S,7aR)-methyl 4-(2-phenylacetoxy)-4-(m-tolylethynyl)octahydro-1H-indole-1-carboxylate] | 36 µL/min/mg | –
CCC[C@H](N)C(=O)O[C@@]1(C#Cc2cccc(C)c2)CCC[C@@H]2[C@H]1CCN2C(=O)OC [Example 32, (3aR,4S,7aR)-4-((S)-2-Amino-pentanoyloxy)-4-m-tolylethynyl-octahydro-indole-1-carboxylic acid methyl ester] | 420 µL/min/mg | –
COC(=O)N1CC[C@@H]2[C@H]1CCC[C@]2(C#Cc1cccc(C)c1)OC(=O)CCC(=O)N1CCCC1 [Example 38, (3aR,4S,7aR)-4-(4-Oxo-4-pyrrolidin-1-yl-butyryloxy)-4-m-tolylethynyl-octahydro-indole-1-carboxylic acid methyl ester] | – | 27 µg/mL (≈ 57.9 µM)
COC(=O)CCC(=O)O[C@@]1(C#Cc2cccc(C)c2)CCC[C@@H]2[C@H]1CCN2C(=O)OC [Example 62, ((3aR,4S,7aR)-1-(methoxycarbonyl)-4-(m-tolylethynyl)octahydro-1H-indol-4-ylmethyl succinate] | – | 164 µg/mL
COC(=O)CC(=O)O[C@@]1(C#Cc2cccc(C)c2)CCC[C@@H]2[C@H]1CCN2C(=O)OC [Example 66, (3aR,4S,7aR)-1-(methoxycarbonyl)-4-(m-tolylethynyl)octahydro-1H-indol-4-yl methyl malonate] | – | 100 µg/mL (≈ 242 µM)
CCCCCC(=O)O[C@@]1(C#Cc2cccc(C)c2)CCC[C@@H]2[C@H]1CCN2C(=O)OC [Example 17, (3aR,4S,7aR)-4-Hexanoyloxy-4-m-tolylethynyl-octahydro-indole-1-carboxylic acid methyl ester] | – | < 2 µg/mL
COC(=O)N1CC[C@@H]2[C@H]1CCC[C@]2(C#Cc1cccc(C)c1)OC(=O)c1cccc(C)c1 [Example 46, (3aR,4S,7aR)-methyl 4-(3-methylbenzoyloxy)-4-(m-tolylethynyl)octahydro-1H-indole-1-carboxylate] | 4.4 µL/min/mg | –
CN[C@H](C(=O)O[C@@]1(C#Cc2cccc(C)c2)CCC[C@@H]2[C@H]1CCN2C(=O)OC)C(C)C [Example 36, (3aR,4S,7aR)-4-((S)-3-Methyl-2-methylamino-butyryloxy)-4-m-tolylethynyl-octahydro-indole-1-carboxylic acid methyl ester] | 815 µL/min/mg | –

Compound | microsomal CLint at 1 μM [1] | solubility [2]
CCNC(=O)CCCC(=O)O[C@@]1(C#Cc2cccc(C)c2)CCC[C@@H]2[C@H]1CCN2C(=O)OC [Example 68, (3aR,4S,7aR)-methyl 4-(5-(ethylamino)-5-oxopentanoyloxy)-4-(m-tolylethynyl)octahydro-1H-indole-1-carboxylate] | – | 386 µg/mL (≈ 849 µM)
COC(=O)N1CC[C@@H]2[C@H]1CCC[C@]2(C#Cc1cccc(C)c1)OC(C)=O [Example 13, (3aR,4S,7aR)-4-Acetoxy-4-m-tolylethynyl-octahydro-indole-1-carboxylic acid methyl ester] | – | 12 µg/mL (≈ 33.8 µM)
COC(=O)N1CC[C@@H]2[C@H]1CCC[C@]2(C#Cc1cccc(C)c1)OC(=O)c1ccc(Br)cc1 [Example 48, (3aR,4S,7aR)-methyl 4-(4-bromobenzoyloxy)-4-(m-tolylethynyl)octahydro-1H-indole-1-carboxylate] | 26 µL/min/mg | –
COC(=O)N1CC[C@@H]2[C@H]1CCC[C@]2(C#Cc1cccc(C)c1)OC(=O)CCC(=O)N(C)C [Example 59, (3aR,4S,7aR)-methyl 4-(4-(dimethylamino)-4-oxobutanoyloxy)-4-(m-tolylethynyl)octa hydro-1H-indole-1-carboxylate] | – | < 2 µg/mL
COC(=O)N1CC[C@@H]2[C@H]1CCC[C@]2(C#Cc1cccc(C)c1)OC(=O)CC(N)=O [Example 60, (3aR,4S,7aR)-methyl 4-(3-amino-3-oxopropanoyloxy)-4-(nm-tolylethynyl)octahydro-1H-indole-1-carboxylate] | – | 110 µg/mL (≈ 276 µM)
CNC(=O)CCC(=O)O[C@@]1(C#Cc2cccc(C)c2)CCC[C@@H]2[C@H]1CCN2C(=O)OC [Example 58, (3aR,4S,7aR)-methyl 4-(4-(methylamino)-4-oxobutanoyloxy)-4-(m-tolylethynyl)octahydro-1H-indole-1-carboxylate] | – | 87 µg/mL (≈ 204 µM)
COC(=O)N1CC[C@@H]2[C@H]1CCC[C@]2(C#Cc1cccc(C)c1)OC(=O)CCCC(=O)NC(C)C [Example 69, (3aR,4S,7aR)-methyl 4-(5-(isopropylamino)-5-oxopentanoyloxy)-4-(m-tolylethynyl)octahydro-1H-indole-1-carboxylate] | – | 28 µg/mL (≈ 59.8 µM)
COC(=O)N1CC[C@@H]2[C@H]1CCC[C@]2(C#Cc1cccc(C)c1)OC(=O)c1c(C)cc(C)cc1C [Example 53, (3aR,4S,7aR)-methyl 4-(m-tolylethynyl)-4-(2,4,6-trimethylbenzoyloxy)octahydro-1H-indole-1-carboxylate] | 3.4 µL/min/mg | –
COC(=O)CCCC(=O)O[C@@]1(C#Cc2cccc(C)c2)CCC[C@@H]2[C@H]1CCN2C(=O)OC [Example 56, (3aR,4S,7aR)-1-(methoxycarbonyl)-4-(m-tolylethynyl)octahydro-1H-indol-4-yl methyl glutarate] | – | 97 µg/mL (≈ 220 µM)
CCNC(=O)CCC(=O)O[C@@]1(C#Cc2cccc(C)c2)CCC[C@@H]2[C@H]1CCN2C(=O)OC [Example 67, (3aR,4S,7aR)-methyl 4-(4-(ethylamino)-4-oxobutanoyloxy)-4-(m-tolylethynyl)octahydro-1H-indole-1-carboxylate] | – | 123 µg/mL (≈ 279 µM)
CCCNC(=O)CCCC(=O)O[C@@]1(C#Cc2cccc(C)c2)CCC[C@@H]2[C@H]1CCN2C(=O)OC [Example 70, (3aR,4S,7aR)-methyl 4-(5-oxo-5-(propylamino)pentanoyloxy)-4-(m-tolylethynyl)octahydro-1H-indole-1-carboxylate] | – | 32 µg/mL (≈ 68.3 µM)
CCCNC(=O)CCC(=O)O[C@@]1(C#Cc2cccc(C)c2)CCC[C@@H]2[C@H]1CCN2C(=O)OC [Example 64, (3aR,4S,7aR)-methyl 4-(4-oxo-4-(propylamino)butanoyloxy)-4-(m-tolylethynyl)octahydro-1H-indole-1-carboxylate] | – | 33 µg/mL (≈ 72.6 µM)
CC[C@H](C)[C@H](NC)C(=O)O[C@@]1(C#Cc2cccc(C)c2)CCC[C@@H]2[C@H]1CCN2C(=O)OC [Example 37, (3aR,4S,7aR)-4-((2S,3S)-3-Methyl-2-methylamino-pentanoyloxy)-4-m-tolylethynyl-octahydro-indole-1-carboxylic acid methyl ester] | 693 µL/min/mg | –
CNC(=O)CC(=O)O[C@@]1(C#Cc2cccc(C)c2)CCC[C@@H]2[C@H]1CCN2C(=O)OC [Example 61, (3aR,4S,7aR)-methyl 4-(3-(methylamino)-3-oxopropanoyloxy)-4-(m-tolylethynyl)octahydro-1H-indole-1-carboxylate] | – | 11 µg/mL (≈ 26.7 µM)
CCCCCCCC(=O)O[C@@]1(C#Cc2cccc(C)c2)CCC[C@@H]2[C@H]1CCN2C(=O)OC [Example 18] | – | < 2 µg/mL
CCN(CC)C(=O)CCC(=O)O[C@@]1(C#Cc2cccc(C)c2)CCC[C@@H]2[C@H]1CCN2C(=O)OC [Example 57, (3aR,4S,7aR)-methyl 4-(4-(diethylamino)-4-oxobutanoyloxy)-4-(m-tolylethynyl)octahydro-1H-indole-1-carboxylate] | – | 19 µg/mL (≈ 40.5 µM)
